This is an account of results in patent US20220370463A1, “STABILIZED C-FMS INTRACELLULAR FRAGMENTS (FICD) PROMOTE OSTEOCLAST DIFFERENTIATION AND ARTHRITIC BONE EROSION” (New York Society for the Relief of the Ruptured and …, priority 2019, published 2022).

The test system of experiment [1] is FICDs (c-FMS intracellular fragments). Nature of the experiment: FICD generation in M-CSF-cultured human CD14+ cells, immunoblot of whole lysates. Type of experiment: cell-based. The note with it: MDL28170 treatment. How it is done: FIGS. 8A-8I show c-FMS expression in synovial macrophages. (A) The levels of M-CSF in synovial fluids from patients with rheumatoid arthritis (RA, n=13) and osteoarthritis (OA, n=8) were measured. (B) Mass spectrometry analysis for proteins from ˜50 kDa bands (red box) identified c-FMS as one of top genes. An image of coomassie blue stained genes showing immunoprecipitated cells lysates with either anti-DDK-tag antibodies or IgG control. (C-G) Human CD14+ cells were cultured with M-CSF (20ng/ml). Immunoblot of c-FMS with different antibodies against C-terminal of c-FMS; (C) C-20, (D) D-8, and (E) #3152. Immunoblot of c-FMS with different antibodies against N-terminal of c-FMS; (F) #61701, (G) H-300. (H-I) Human CD14+ cells were cultured with M-CSF (20 ng/ml) for 8 hours to induce early signals, and then BB94 (10 uM) was added for 2 days. (H) Immunoblot with anti c-FMS and α-tubulin antibodies in whole lysates (n=3). (I) Soluble c-FMS was detected by ELISA (n=3). […] All data are shown as mean±SEM. *; p<0.05 significant by two-tailed, paired t-test (A and I). M: mature form, I: immature form, H: hgh mass, L: low mass.
FIGS. 10A-10F show calpain regulates FICD generation. (A and B) Human CD14+ cells were cultured with M-CSF (20 ng/ml) for 8 hours to induce early signals and then (A) MDL 28170(0, 1, 2, 5 uM) or (B) PD150606 (0, 2, 5 uM) was added for 2 days. […]

The subject of the next experiment is human CD14+ cells. In words: Human osteoclastogenesis assay (TRAP-positive multinuclear cells). Type of experiment: cell-based. The note with it: M-CSF, RANKL and MDL28170 for 4 days. The protocol: FIGS. 10A-10F show calpain regulates FICD generation. (A and B) Human CD14+ cells were cultured with M-CSF (20 ng/ml) for 8 hours to induce early signals and then (A) MDL 28170(0, 1, 2, 5 uM) or (B) PD150606 (0, 2, 5 uM) was added for 2 days. Immunoblot with anti c-FMS and α-tubulin antibodies in whole lysates(n=3). (C) Immunoblot of nuclear lysates with c-FMS and Lamin B1 antibodies. Cells were cultured with M-CSF for 12 hours, and then M-CSF was removed. Cells were subsequently treated with or without CaCl2 (10 mM) for an additional 24 hours. (D) Osteoclastogenesis assay. Human CD14+ cells were cultured with M-CSF, RANKL and MDL28170 for 4 days. […] Black scale bar is 100 μm. (E) A table showing the calpain cleavage site in c-FMS predicted by GPS-CCD program. First two calpain cleavage sites in cytoplasmic domains of c-FMS were used for FICD constructs. (F) A schematic diagram of a FICD construct. Representative results from at least three independent experiments.
For human osteoclastogenesis assays, cells were added to 96 well plates in triplicate at a seeding density of 5×10^4 cells per well. Osteoclast precursors were incubated with 20 ng/ml of M-CSF and 40 ng/ml of human soluble RANKL up to 5 days in α-MEM supplemented with 10% FBS and 1% L-glutamine. […] Multinucleated (greater than 3 nuclei), TRAP-positive osteoclasts were counted in triplicate wells. […]

As for MDL28170, the L-FICD result in experiment [1] is “decreased”. For the same substance, in the experiment on human CD14+ cells, the osteoclast differentiation result is “decreased”.
